Data: patent US20230183292A1, “IMMUNOMODULATORS” (priority 2020, published 2023)
Starred links: 1 amine or outer side, 2 acyl side, 3 side chain; linkers in the order of their positions; H or OH if unused. Positions of bridges follow the written chain, without caps; N, C: chain ends. Non-standard residues stand in square brackets, D forms with d. Residues, ends and D or L forms follow the SMILES beside them. Groups on a side chain read outwards from the residue. *: point of attachment. Chenodeoxycholyl = C[C@H](CCC(=O)*)[C@H]1CC[C@H]2[C@@H]3[C@H](O)C[C@@H]4C[C@H](O)CC[C@]4(C)[C@H]3CC[C@]12C; Ursodeoxycholyl = C[C@H](CCC(=O)*)[C@H]1CC[C@H]2[C@@H]3[C@@H](O)C[C@@H]4C[C@H](O)CC[C@]4(C)[C@H]3CC[C@]12C; Cholyl = C[C@H](CCC(=O)*)[C@H]1CC[C@H]2[C@@H]3[C@H](O)C[C@@H]4C[C@H](O)CC[C@]4(C)[C@H]3C[C@H](O)[C@]12C; Deoxycholoyl = C[C@H](CCC(=O)*)[C@H]1CC[C@H]2[C@@H]3CC[C@@H]4C[C@H](O)CC[C@]4(C)[C@H]3C[C@H](O)[C@]12C; Lithocholoyl = C[C@H](CCC(=O)*)[C@H]1CC[C@H]2[C@@H]3CC[C@@H]4C[C@H](O)CC[C@]4(C)[C@H]3CC[C@]12C; X36 = C[C@H](CCC(=O)*)[C@H]1CC[C@H]2[C@@H]3CC[C@@H]4C[C@H](O)CC[C@]4(C)[C@H]3CC(O)[C@]12C; Trp(1-CH2CO2Me) = COC(=O)Cn1cc(C[C@H](N)C(=O)O)c2ccccc21; X29 = CN(C)C(=O)Cn1cc(C[C@H](N[*:1])C(=O)[*:2])c2ccccc21; Trp(1-CH2COOH) = N[C@@H](Cc1cn(CC(=O)O)c2ccccc12)C(=O)O; Hyp = O=C(O)[C@@H]1C[C@@H](O)CN1; NMeNle = CCCC[C@H](NC)C(=O)O; NMeA = CN[C@@H](C)C(=O)O; Dab = NCC[C@H](N)C(=O)O; Dap = NC[C@H](N)C(=O)O

Molecular target: T1, PD-1/PD-L1 (Homo sapiens, UniProt Q9NZQ7)
T1 construct: TVMV protease site (C); made in house; host or cells: HEK293T cells
T1 sequence (Q9NZQ7 18-239): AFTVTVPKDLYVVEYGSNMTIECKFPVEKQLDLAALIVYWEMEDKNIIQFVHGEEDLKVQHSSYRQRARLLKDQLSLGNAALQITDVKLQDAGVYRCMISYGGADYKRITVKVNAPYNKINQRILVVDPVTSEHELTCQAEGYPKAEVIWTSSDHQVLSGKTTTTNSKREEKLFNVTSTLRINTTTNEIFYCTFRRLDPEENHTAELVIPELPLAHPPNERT
Test: PD-1/PD-L1 Homogenous Time-Resolved Fluorescence (HTRF) binding assay
Conditions: PD-L1-His 10 nM, PD-1-Ig 20 nM; read-out: HTRF IC50
From the text: The ability of the compounds of formula (I) to bind to PD-L1 was investigated using a PD-1/PD-L1 Homogenous Time-Resolved Fluorescence (HTRF) binding assay.
The interaction of PD-1 and PD-L1 can be assessed using soluble, purified preparations of the extracellular domains of the two proteins. The PD-1 and PD-L1 protein extracellular domains were expressed as fusion proteins with detection tags, for PD-1, the tag was the Fc portion of Immunoglobulin (PD-1-Ig) and for PD-L1 it was the 6 histidine motif (PD-L1-His). All binding studies were performed in an HTRF assay buffer consisting of dPBS supplemented with 0.1% […] bovine serum albumin and 0.05% (v/v) Tween-20. For the h/PD-L1-His binding assay, inhibitors were pre-incubated with PD-L1-His (10 nM final) for 15 m in 4 μl of assay buffer, followed by addition of PD-1-Ig (20 nM final) in 1 μl of assay buffer and further incubation for 15 m. HTRF detection was achieved using europium crypate-labeled anti-Ig (1 nM final) and allophycocyanin (APC) labeled anti-His (20 nM final). Antibodies were diluted in HTRF detection buffer and 5 μl was dispensed on top of the binding reaction. The reaction mixture was allowed to equilibrate for 30 minutes and the resulting signal (665 nm/620 nm ratio) was obtained using an EnVision fluorometer. Additional binding assays were established between the human proteins PD-1-Ig/PD-L2-His (20 & 5 nM, respectively) and CD80-His/PD-L1-Ig (100 & 10 nM, respectively).
Recombinant Proteins: Human PD-1 (25-167) with a C-terminal human Fc domain of immunoglobulin G (Ig) epitope tag [hPD-1 (25-167)-3S-IG] and human PD-L1 (18-239) with a C-terminal His epitope tag [hPD-L1(18-239)-TVMV-His] were expressed in HEK293T cells and purified sequentially by ProteinA affinity chromatography and size exclusion chromatography. Human PD-L2-His and CD80-His was obtained through commercial sources.
Table 1 lists the IC50 values for representative examples of this disclosure measured in the PD-1/PD-L1 Homogenous Time-Resolved Fluorescence (HTRF) binding assay.

Row | Compound | IC50
1 | CCCC[C@H]1C(=O)N(C)[C@@H](CCCC)C(=O)N[C@@H](CC(C)C)C(=O)N[C@H](C(=O)NCC(N)=O)CSCC(=O)N[C@@H](Cc2ccc(O)cc2)C(=O)N(C)[C@@H](C)C(=O)N[C@@H](CC(N)=O)C(=O)N2CCC[C@H]2C(=O)N[C@@H](CNC(=O)CC[C@@H](C)[C@H]2CC[C@H]3[C@@H]4CC[C@@H]5C[C@H](O)CC[C@]5(C)[C@H]4C[C@H](O)[C@]23C)C(=O)N[C@@H](CC(C)C)C(=O)N2C[C@H](O)C[C@H]2C(=O)N[C@@H](Cc2c[nH]c3ccccc23)C(=O)N[C@@H](CCNC(=O)CC[C@@H](C)[C@H]2CC[C@H]3[C@@H]4[C@H](O)C[C@@H]5C[C@H](O)CC[C@]5(C)[C@H]4CC[C@]23C)C(=O)N[C@@H](Cc2cn(CC(=O)OC)c3ccccc23)C(=O)N1C [Example 1001] ({CH2CO}-Y[NMeA]NP[Dap](Deoxycholoyl)L[Hyp]W[Dab](Chenodeoxycholyl)[Trp(1-CH2CO2Me)][NMeNle][NMeNle]LCG-NH2; thioether N-14) | 0.0095 µM
2 | CCCC[C@H]1C(=O)N(C)[C@@H](CCCC)C(=O)N[C@@H](CC(C)C)C(=O)N[C@H](C(=O)NCC(N)=O)CSCC(=O)N[C@@H](Cc2ccc(O)cc2)C(=O)N(C)[C@@H](C)C(=O)N[C@@H](CC(N)=O)C(=O)N2CCC[C@H]2C(=O)N[C@@H](CNC(=O)CC[C@@H](C)[C@H]2CC[C@H]3[C@@H]4CC[C@@H]5C[C@H](O)CC[C@]5(C)[C@H]4C[C@H](O)[C@]23C)C(=O)N[C@@H](CC(C)C)C(=O)N2C[C@H](O)C[C@H]2C(=O)N[C@@H](Cc2c[nH]c3ccccc23)C(=O)N[C@@H](CCNC(=O)CC[C@@H](C)[C@H]2CC[C@H]3[C@@H]4[C@H](O)C[C@@H]5C[C@H](O)CC[C@]5(C)[C@H]4CC[C@]23C)C(=O)N[C@@H](Cc2cn(CC(=O)O)c3ccccc23)C(=O)N1C [Example 1002] ({CH2CO}-Y[NMeA]NP[Dap](Deoxycholoyl)L[Hyp]W[Dab](Chenodeoxycholyl)[Trp(1-CH2COOH)][NMeNle][NMeNle]LCG-NH2; thioether N-14) | 0.011 µM
3 | CCCC[C@H]1C(=O)N(C)[C@@H](CCCC)C(=O)N[C@@H](CC(C)C)C(=O)N[C@H](C(=O)NCC(N)=O)CSCC(=O)N[C@@H](Cc2ccc(O)cc2)C(=O)N(C)[C@@H](C)C(=O)N[C@@H](CC(N)=O)C(=O)N2CCC[C@H]2C(=O)N[C@@H](CNC(=O)CC[C@@H](C)[C@H]2CC[C@H]3[C@@H]4CC[C@@H]5C[C@H](O)CC[C@]5(C)[C@H]4C[C@H](O)[C@]23C)C(=O)N[C@@H](CC(C)C)C(=O)N2C[C@H](O)C[C@H]2C(=O)N[C@@H](Cc2c[nH]c3ccccc23)C(=O)N[C@@H](CCNC(=O)CC[C@@H](C)[C@H]2CC[C@H]3[C@@H]4CC[C@@H]5C[C@H](O)CC[C@]5(C)[C@H]4CC(O)[C@]23C)C(=O)N[C@@H](Cc2cn(CC(=O)OC)c3ccccc23)C(=O)N1C (stereo partly drawn) [Example 1003] ({CH2CO}-Y[NMeA]NP[Dap](Deoxycholoyl)L[Hyp]W[Dab](X36)[Trp(1-CH2CO2Me)][NMeNle][NMeNle]LCG-NH2; thioether N-14) | > 10 µM
4 | CCCC[C@H]1C(=O)N(C)[C@@H](CCCC)C(=O)N[C@@H](CC(C)C)C(=O)N[C@H](C(=O)NCC(N)=O)CSCC(=O)N[C@@H](Cc2ccc(O)cc2)C(=O)N(C)[C@@H](C)C(=O)N[C@@H](CC(N)=O)C(=O)N2CCC[C@H]2C(=O)N[C@@H](CNC(=O)CC[C@@H](C)[C@H]2CC[C@H]3[C@@H]4CC[C@@H]5C[C@H](O)CC[C@]5(C)[C@H]4CC[C@]23C)C(=O)N[C@@H](CC(C)C)C(=O)N2C[C@H](O)C[C@H]2C(=O)N[C@@H](Cc2c[nH]c3ccccc23)C(=O)N[C@@H](CCNC(=O)CC[C@@H](C)[C@H]2CC[C@H]3[C@@H]4CC[C@@H]5C[C@H](O)CC[C@]5(C)[C@H]4CC[C@]23C)C(=O)N[C@@H](Cc2cn(CC(=O)OC)c3ccccc23)C(=O)N1C [Example 1004] ({CH2CO}-Y[NMeA]NP[Dap](Lithocholoyl)L[Hyp]W[Dab](Lithocholoyl)[Trp(1-CH2CO2Me)][NMeNle][NMeNle]LCG-NH2; thioether N-14) | > 10 µM
5 | CCCC[C@H]1C(=O)N(C)[C@@H](CCCC)C(=O)N[C@@H](CC(C)C)C(=O)N[C@H](C(=O)NCC(N)=O)CSCC(=O)N[C@@H](Cc2ccc(O)cc2)C(=O)N(C)[C@@H](C)C(=O)N[C@@H](CC(N)=O)C(=O)N2CCC[C@H]2C(=O)N[C@@H](CNC(=O)CC[C@@H](C)[C@H]2CC[C@H]3[C@@H]4[C@H](O)C[C@@H]5C[C@H](O)CC[C@]5(C)[C@H]4CC[C@]23C)C(=O)N[C@@H](CC(C)C)C(=O)N2C[C@H](O)C[C@H]2C(=O)N[C@@H](Cc2c[nH]c3ccccc23)C(=O)N[C@@H](CCNC(=O)CC[C@@H](C)[C@H]2CC[C@H]3[C@@H]4[C@H](O)C[C@@H]5C[C@H](O)CC[C@]5(C)[C@H]4CC[C@]23C)C(=O)N[C@@H](Cc2cn(CC(=O)OC)c3ccccc23)C(=O)N1C [Example 1005] ({CH2CO}-Y[NMeA]NP[Dap](Chenodeoxycholyl)L[Hyp]W[Dab](Chenodeoxycholyl)[Trp(1-CH2CO2Me)][NMeNle][NMeNle]LCG-NH2; thioether N-14) | 8.4 µM
6 | CCCC[C@H]1C(=O)N(C)[C@@H](CCCC)C(=O)N[C@@H](CC(C)C)C(=O)N[C@H](C(=O)NCC(N)=O)CSCC(=O)N[C@@H](Cc2ccc(O)cc2)C(=O)N(C)[C@@H](C)C(=O)N[C@@H](CC(N)=O)C(=O)N2CCC[C@H]2C(=O)N[C@@H](CNC(=O)CC[C@@H](C)[C@H]2CC[C@H]3[C@@H]4[C@@H](O)C[C@@H]5C[C@H](O)CC[C@]5(C)[C@H]4CC[C@]23C)C(=O)N[C@@H](CC(C)C)C(=O)N2C[C@H](O)C[C@H]2C(=O)N[C@@H](Cc2c[nH]c3ccccc23)C(=O)N[C@@H](CCNC(=O)CC[C@@H](C)[C@H]2CC[C@H]3[C@@H]4[C@@H](O)C[C@@H]5C[C@H](O)CC[C@]5(C)[C@H]4CC[C@]23C)C(=O)N[C@@H](Cc2cn(CC(=O)OC)c3ccccc23)C(=O)N1C [Example 1006] ({CH2CO}-Y[NMeA]NP[Dap](Ursodeoxycholyl)L[Hyp]W[Dab](Ursodeoxycholyl)[Trp(1-CH2CO2Me)][NMeNle][NMeNle]LCG-NH2; thioether N-14) | > 10 µM
7 | CCCC[C@H]1C(=O)N(C)[C@@H](CCCC)C(=O)N[C@@H](CC(C)C)C(=O)N[C@H](C(=O)NCC(N)=O)CSCC(=O)N[C@@H](Cc2ccc(O)cc2)C(=O)N(C)[C@@H](C)C(=O)N[C@@H](CC(N)=O)C(=O)N2CCC[C@H]2C(=O)N[C@@H](CNC(=O)CC[C@@H](C)[C@H]2CC[C@H]3[C@@H]4[C@H](O)C[C@@H]5C[C@H](O)CC[C@]5(C)[C@H]4C[C@H](O)[C@]23C)C(=O)N[C@@H](CC(C)C)C(=O)N2C[C@H](O)C[C@H]2C(=O)N[C@@H](Cc2c[nH]c3ccccc23)C(=O)N[C@@H](CCN)C(=O)N[C@@H](Cc2cn(CC(=O)OC)c3ccccc23)C(=O)N1C [Example 1007] ({CH2CO}-Y[NMeA]NP[Dap](Cholyl)L[Hyp]W[Dab][Trp(1-CH2CO2Me)][NMeNle][NMeNle]LCG-NH2; thioether N-14) | 0.0068 µM
8 | CCCC[C@H]1C(=O)N(C)[C@@H](CCCC)C(=O)N[C@@H](CC(C)C)C(=O)N[C@H](C(=O)NCC(N)=O)CSCC(=O)N[C@@H](Cc2ccc(O)cc2)C(=O)N(C)[C@@H](C)C(=O)N[C@@H](CC(N)=O)C(=O)N2CCC[C@H]2C(=O)N[C@@H](CNC(=O)CNC(=O)CC[C@@H](C)[C@H]2CC[C@H]3[C@@H]4[C@H](O)C[C@@H]5C[C@H](O)CC[C@]5(C)[C@H]4C[C@H](O)[C@]23C)C(=O)N[C@@H](CC(C)C)C(=O)N2C[C@H](O)C[C@H]2C(=O)N[C@@H](Cc2c[nH]c3ccccc23)C(=O)N[C@@H](CCN)C(=O)N[C@@H](Cc2cn(CC(=O)N(C)C)c3ccccc23)C(=O)N1C [Example 1008] ({CH2CO}-Y[NMeA]NP[Dap]([Gly-Cholyl])L[Hyp]W[Dab][X29][NMeNle][NMeNle]LCG-NH2; thioether N-14) | 0.014 µM
9 | CCCC[C@H]1C(=O)N(C)[C@@H](CCCC)C(=O)N[C@@H](CC(C)C)C(=O)N[C@H](C(=O)NCC(N)=O)CSCC(=O)N[C@@H](Cc2ccc(O)cc2)C(=O)N(C)[C@@H](C)C(=O)N[C@@H](CC(N)=O)C(=O)N2CCC[C@H]2C(=O)N[C@@H](CNC(=O)CC[C@@H](C)[C@H]2CC[C@H]3[C@@H]4CC[C@@H]5C[C@H](O)CC[C@]5(C)[C@H]4CC[C@]23C)C(=O)N[C@@H](CC(C)C)C(=O)N2C[C@H](O)C[C@H]2C(=O)N[C@@H](Cc2c[nH]c3ccccc23)C(=O)N[C@@H](CCN)C(=O)N[C@@H](Cc2cn(CC(=O)O)c3ccccc23)C(=O)N1C [Example 1009] ({CH2CO}-Y[NMeA]NP[Dap](Lithocholoyl)L[Hyp]W[Dab][Trp(1-CH2COOH)][NMeNle][NMeNle]LCG-NH2; thioether N-14) | 0.017 µM
